Reference: PubChem BioAssay (NCI)
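Five compound concentrations were applied to cells in 96-well plates for 48 hours; endpoints were derived by simple linear interpolation of the resulting dose-response curve. At the GI50, growth is halved. TGI: total growth inhibition.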

Assays:
Assay in all cases: NCI-60 cell line screen, 48 h
SR leukemia = test system: SR leukemia
BT-549 breast = test system: BT-549 breast
M14 melanoma = test system: M14 melanoma
MDA-MB-435 = test system: MDA-MB-435
HS 578T breast = test system: HS 578T breast
T-47D breast = test system: T-47D breast
SNB-19 CNS = test system: SNB-19 CNS
SF-295 CNS = test system: SF-295 CNS
OVCAR-3 ovarian = test system: OVCAR-3 ovarian
SF-539 CNS = test system: SF-539 CNS
U251 CNS = test system: U251 CNS
OVCAR-5 ovarian = test system: OVCAR-5 ovarian
SK-OV-3 ovarian = test system: SK-OV-3 ovarian
SK-MEL-5 melanoma = test system: SK-MEL-5 melanoma
MALME-3M melanoma = test system: MALME-3M melanoma
TK-10 renal = test system: TK-10 renal
DU-145 prostate = test system: DU-145 prostate
HL-60(TB) leukemia = test system: HL-60(TB) leukemia
OVCAR-4 ovarian = test system: OVCAR-4 ovarian
SN12C renal = test system: SN12C renal
UACC-62 melanoma = test system: UACC-62 melanoma
SK-MEL-28 melanoma = test system: SK-MEL-28 melanoma
KM12 colon = test system: KM12 colon
786-0 renal = test system: 786-0 renal
HOP-92 NSCLC = test system: HOP-92 NSCLC
HOP-62 NSCLC = test system: HOP-62 NSCLC
MDA-MB-231 breast = test system: MDA-MB-231 breast
UACC-257 melanoma = test system: UACC-257 melanoma
NCI-H23 lung = test system: NCI-H23 lung
MOLT-4 leukemia = test system: MOLT-4 leukemia
EKVX NSCLC = test system: EKVX NSCLC
A549 NSCLC = test system: A549 NSCLC
SF-268 CNS = test system: SF-268 CNS
SK-MEL-2 melanoma = test system: SK-MEL-2 melanoma
UO-31 renal = test system: UO-31 renal
NCI/ADR-RES ovarian = test system: NCI/ADR-RES ovarian
ACHN renal = test system: ACHN renal
LOX IMVI melanoma = test system: LOX IMVI melanoma
MCF7 breast = test system: MCF7 breast
SNB-75 CNS = test system: SNB-75 CNS
OVCAR-8 ovarian = test system: OVCAR-8 ovarian
IGROV1 ovarian = test system: IGROV1 ovarian
NCI-H460 lung = test system: NCI-H460 lung
HCT-116 colon = test system: HCT-116 colon
HCT-15 colon = test system: HCT-15 colon
HCC-2998 colon = test system: HCC-2998 colon
CAKI-1 renal = test system: CAKI-1 renal
PC-3 prostate = test system: PC-3 prostate
HT29 colon = test system: HT29 colon
COLO 205 colon = test system: COLO 205 colon
K-562 leukemia = test system: K-562 leukemia
NCI-H226 lung = test system: NCI-H226 lung
NCI-H522 lung = test system: NCI-H522 lung
A498 renal = test system: A498 renal
SW-620 colon = test system: SW-620 colon
CCRF-CEM leukemia = test system: CCRF-CEM leukemia

## C#C[C@]1(O)CC[C@H]2[C@@H]3CC=C4c5sc(-c6ccc7c(c6)OCO7)nc5CC[C@]4(C)[C@H]3CC[C@@]21C
SR leukemia
  GI50: 2.64 µM
  TGI: > 100 µM
BT-549 breast
  GI50: 1.99 µM
  TGI: 5.67 µM
M14 melanoma
  GI50: 1.73 µM
  TGI: 5.34 µM
MDA-MB-435
  GI50: 1.97 µM
  TGI: 4.17 µM
HS 578T breast
  GI50: 0.501 µM
  TGI: 3.98 µM
T-47D breast
  GI50: 3.62 µM
  TGI: 27.6 µM
SNB-19 CNS
  GI50: 2.59 µM
  TGI: 13.8 µM
SF-295 CNS
  GI50: 0.52 µM
  TGI: 2.56 µM
OVCAR-3 ovarian
  GI50: 3 µM
  TGI: 11.9 µM
SF-539 CNS
  GI50: 0.428 µM
  TGI: 1.96 µM
U251 CNS
  GI50: 1.41 µM
  TGI: 4.53 µM
OVCAR-5 ovarian
  GI50: 2.08 µM
  TGI: 5.29 µM
SK-OV-3 ovarian
  GI50: 4.83 µM
  TGI: 26.6 µM
SK-MEL-5 melanoma
  GI50: 2.64 µM
  TGI: 6.99 µM
MALME-3M melanoma
  GI50: 2.69 µM
  TGI: 8.62 µM
TK-10 renal
  GI50: 3.39 µM
  TGI: 10.1 µM
DU-145 prostate
  GI50: 3.45 µM
  TGI: 70.5 µM
HL-60(TB) leukemia
  GI50: 3.8 µM
  TGI: > 100 µM
OVCAR-4 ovarian
  GI50: 3.33 µM
  TGI: 9.95 µM
SN12C renal
  GI50: 2.88 µM
  TGI: 9.83 µM
UACC-62 melanoma
  GI50: 2.24 µM
  TGI: 5.19 µM
SK-MEL-28 melanoma
  GI50: 1.29 µM
  TGI: 2.85 µM
KM12 colon
  GI50: 3.46 µM
  TGI: 31.1 µM
786-0 renal
  GI50: 0.841 µM
  TGI: 3.78 µM
HOP-92 NSCLC
  GI50: 8.39 µM
  TGI: 29.8 µM
HOP-62 NSCLC
  GI50: 2.53 µM
  TGI: 7.94 µM
MDA-MB-231 breast
  GI50: 3.45 µM
  TGI: 40.8 µM
UACC-257 melanoma
  GI50: 2.43 µM
  TGI: 6.7 µM
NCI-H23 lung
  GI50: 2.13 µM
  TGI: 5.29 µM
MOLT-4 leukemia
  GI50: 2.8 µM
  TGI: > 100 µM
EKVX NSCLC
  GI50: 3.55 µM
  TGI: 73.5 µM
A549 NSCLC
  GI50: 2.76 µM
  TGI: 8.48 µM
SF-268 CNS
  GI50: 4.97 µM
  TGI: 27.7 µM
SK-MEL-2 melanoma
  GI50: 2.14 µM
  TGI: 6.37 µM
UO-31 renal
  GI50: 2.03 µM
  TGI: 5.47 µM
NCI/ADR-RES ovarian
  GI50: 3.34 µM
  TGI: 17 µM
ACHN renal
  GI50: 2.11 µM
  TGI: 5.57 µM
LOX IMVI melanoma
  GI50: 1.73 µM
  TGI: 4.3 µM
MCF7 breast
  GI50: 1.87 µM
  TGI: 4.95 µM
SNB-75 CNS
  GI50: 1.73 µM
  TGI: 8.25 µM
OVCAR-8 ovarian
  GI50: 3.43 µM
  TGI: 86.3 µM
IGROV1 ovarian
  GI50: 2.98 µM
  TGI: 8.3 µM
NCI-H460 lung
  GI50: 2.38 µM
  TGI: 5.64 µM
HCT-116 colon
  GI50: 1.84 µM
  TGI: 5.3 µM
HCT-15 colon
  GI50: 1.93 µM
  TGI: 6.28 µM
HCC-2998 colon
  GI50: 5.56 µM
  TGI: > 100 µM
CAKI-1 renal
  GI50: 2.63 µM
  TGI: 8.37 µM
PC-3 prostate
  GI50: 1.68 µM
  TGI: 4.46 µM
HT29 colon
  GI50: 2.32 µM
  TGI: 7.65 µM
COLO 205 colon
  GI50: 3.87 µM
  TGI: 27.8 µM
K-562 leukemia
  GI50: 3.53 µM
  TGI: > 100 µM
NCI-H226 lung
  GI50: 3.31 µM
  TGI: 12.6 µM
NCI-H522 lung
  GI50: 2.38 µM
  TGI: 6.17 µM
A498 renal
  GI50: 1.63 µM
  TGI: 7.49 µM
SW-620 colon
  GI50: 2.07 µM
  TGI: 5.28 µM
CCRF-CEM leukemia
  GI50: 2.8 µM
  TGI: > 100 µM
